From patent US8778882B2, “Agent for strengthening calcium containing tissue and use thereof” (Hayashibara Co., Ltd., priority 2002, dated 2014)

What was measured:
Type in all cases: cell-based
[1] = test system: mouse pre-osteoblastic cell MC3T3-E1; assay: Alkaline phosphatase activity in mouse pre-osteoblastic cells; settings: for activity at 20 µM: Mus musculus
Experimental: To increase number of osteoblastic cells having calcium-deposition activity is important for increasing bone mass. […] The activity is at low level in pre-osteoblastic cells and at high level in osteoblastic cells differentiated form the pre-osteoblastic cells. […] Since final ethanol concentration in the medium is 0.2% (v/v), α-MEM medium containing 0.2% (v/v) ethanol was prepared as a negative control. The cells were inoculated for eight days as changing the medium therewith to fresh medium with or without each sample per three days. Alkaline phosphatase activity was measured using “Alkaline Phospha B-Test Wako” (commercialized by Wako Pure Chemical Industries, Osaka, Japan) according with Kajii et al (Archives of Oral Biology, Vol. 44, pp. 233-241, (1999)). Briefly, to the above described mouse pre-osteoblastic cells washed with 1 ml of 0.25 M sucrose solution three times after removing the medium were added 0.45 ml of 50 mM carbonate salt buffer (pH9.8) containing 1 mM magnesium chloride and 50 mM sucrose and 0.05 ml of 3.4 mM disodium p-nitrophenyl phosphate in due course. The mixture was incubated at 25° C. for five minutes and admixed with 1.5 ml of 0.6N sodium hydroxide as a reaction terminator. Absorbance 405 nm of p-nitrophenol generated by alkaline phosphatase in the resulting mixture was measured, and the obtained values were used as values as alkaline phosphatase activity. […] The experiment was performed by the method according to Experiment 1 except that culture day in the medium containing each sample was three, six or nine, and concentration of each sample was 5, 10 or 20 μM. […] As a negative control, mediums containing ethanol in the above concentration were prepared for calculating relative activity to the activity of each control.

Mouse MC3T3-E1 cells = assay: Calcium deposition by alizarin red-S staining; parameters: key: +: same strength of red color as a negative control (only medium containing 0.2% (v/v) ethanol); ++: half strength of the positive control; +++: same strength of red color as a positive control (indomethacin); settings: MC3T3-E1, 20 mM each compound (so in the source), eight days, alizarin red-S red color judgement
From the text: Following Experiment 1 which investigates differentiating pre-osteoblastic cells into osteoblastic cells, some of organic compounds were investigated whether they actually enhance calcium deposition or not. Indomethacin (commercialized by Funakoshi, Co., Ltd., Tokyo, Japan) (positive control), kaempferol (commercialized by Funakoshi, Co., Ltd., Tokyo, Japan), hesperetin (commercialized by Funakoshi, Co., Ltd., Tokyo, Japan), gallic acid (commercialized by Nacalai Tesque, Kyoto, Japan), and coffeic acid (commercialized by Wako Pure Chemical Industries, Osaka, Japan) were selected as organic compounds. Mouse MC3T3-E1 cells were treated with 20 mM each above compound dissolved in 1 ml of α-MEM medium supplemented with 10% (v/v) fetal calf serum and containing 10 mM β-glycerophosphate. Since final ethanol concentration in the medium is 0.2% (v/v), α-MEM medium containing 0.2% (v/v) ethanol was prepared as a negative control. The cells were inoculated for eight days as changing the medium therewith to fresh medium with or without each sample per three days. The cells were applied to measure calcium deposition therein by usual alizarin red-S staining method. Briefly to the cells washed with 1 ml of Dulbecco phosphate buffer saline twice after removing the medium were added 1 ml of 50 (v/v) % ethanol aqueous solution and incubated for 10 minutes. After removing the 50 (v/v) % ethanol aqueous solution, the cells were incubated with 1 ml of distilled water for 10 minutes. After removing the water, the cells were applied with 1 ml of 1% (w/v) alizarin red-S solution, incubated for 10 minutes, and washed with 1 ml of distilled water for three times after removing alizarin red-S solution. Then, the calcium deposition amount was measured in a manner of judging red color on the plate bottom since deposited calcium was stained by the above treatment. The judgement criterion “+” means same strength of red color as a negative control (only medium containing 0.2% (v/v) ethanol), “+++” means same strength of red color as a positive control (indomethacin), and “++” means half strength of the positive control.

[2] = test system: mouse pre-osteoblastic cell MC3T3-E1; assay: Calcium deposition amount by Calcium C Test Wako; settings: Mus musculus, MC3T3-E1; flavonoid comparison, Calcium C Test Wako, relative to 0.2% (v/v) ethanol negative control
From the text: Other flavonoid compounds than kaempferol or hesperetin were investigated where they have the same effect or not. Flavone (commercialized by Kanto Kagaku, Tokyo, Japan), apigenin (commercialized by Funakoshi, Co., Ltd., Tokyo, Japan), flavonol (commercialized by Tokyo Kasei Kogyo, Co., Ltd., Tokyo, Japan), quercetin (commercialized by Kanto Kagaku, Tokyo, Japan), kaempferol (commercialized by Funakoshi, Co., Ltd., Tokyo, Japan), rutin (commercialized by Kanto Kagaku, Tokyo, Japan), flavanone (commercialized by Kanto Kagaku, Tokyo, Japan), naringenin (commercialized by Ardrich Corporation), hesperetin (commercialized by Funakoshi, Co., Ltd., Tokyo, Japan), hesperidin (commercialized by Kanto Kagaku, Tokyo, Japan), chalcone (commercialized by Merk Corporation), fuloretin (commercialized by Sigma Corporation), catechin (commercialized by Sigma Corporation), ipriflavone (commercialized by Daito Corporation, Toyama, Japan), taxifolin (commercialized by Funakoshi, Co., Ltd., Tokyo, Japan), sulfuretin (commercialized by Funakoshi, Co., Ltd.; Tokyo, Japan), or cyanidin (commercialized by Funakoshi, Co., Ltd., Tokyo, Japan) was selected as test samples. Alkaline phosphatase activity was measured by the method of Experiment 1. Calcium deposition was measured by usual method using “Calcium C Test Wako” (commercialized by Wako Pure Chemical Industries, Osaka, Japan), briefly, cultured cells were washed with 1 ml of Dulbecco phosphate buffer saline three times after removing the medium. To the resultant was added 0.5 ml of 2N hydrochloric acid to resolve deposited calcium. To 5 μl of the resultant solution were added 0.5 ml of 0.88M monoethanolamine buffer (pH11) and 0.05 ml of 0.63 mM o-cresolphthalein complexone solution (binding to calcium ion to form chelate complex) containing 69 mM 8-quinolinol and mixed. Calcium amount per one hole of the plate was calculated by measuring absorbance 570 nm of the resultants and standardizing with a standard calcium solution. The judgement of alkaline phosphatase activity or calcium deposition amount of each sample was to calculate the relative activity or the relative calcium deposition amount to the negative control (only medium containing 0.2% (v/v) ethanol) and to compare each other.
The enhancement of calcium deposition between kaempferol and ipripfavone were compared. Test samples and their adding manner were same as Experiment 4. Calcium deposition amount was measured by usual method using “Calcium C Test Wako” (commercialized by Wako Pure Chemical Industries, Osaka, Japan); briefly, cultured cells were washed with 1 ml of Dulbecco phosphate buffer saline three times after removing the medium. To the resultant was added 0.5 ml of 2N hydrochloric acid to resolve deposited calcium. To 5 μl of the resolving solution were added 0.5 ml of 0.88M monoethanolamine buffer (pH11) and 0.05 ml of 0.63 mM o-cresolphthalein complexone solution (binding to calcium ion to form chelate complex) containing 69 mM 8-quinolinol and mixed, Calcium amount per one hole of the plate was calculated by measuring absorbance 570 nm of the resultants and standardizing with a standard calcium solution.
Kaempferol or hesperetin in combination with ipriflavone, or a kind of isoflavones, was investigated whether to enhance calcium deposition or not. Methods for preparing samples and culturing the cells were the same method described in Experiment 1 except culturing the cells for five days, Method for measuring calcium was the same method described in Experiment 3 and 5. Final ethanol concentration of the medium containing each sample was adjusted as same concentration.

[3] = 192 h, MC3T3-E1, 20 mM each compound (so in the source), eight days, relative to 0.2% (v/v) ethanol negative control

Compound | activity at 20 µM [1, 3] | Calcium Deposition Amount (Mouse MC3T3-E1 cells) | activity at 20 µM [2] | activity at 20 µM ([1]; MC3T3-E1, flavonoid comparison, method of Experiment 1, relative to 0.2% (v/v) ethanol negative control) | Relative Alkaline Phosphatase Activity (%) ([1]; MC3T3-E1, 20 mM each compound (so in the source), eight days, relative to 0.2% (v/v) ethanol negative control)
O=C(O)c1cc(O)c(O)c(O)c1 [Gallic Acid, gallic acid] | 79% | + |  |  | 
COc1ccc2c(c1)c(CC(=O)O)c(C)n2C(=O)c1ccc(Cl)cc1 [Indomethacin, indomethacin, reference compound] | 142% | +++ |  |  | 
O=c1c(O)c(-c2ccc(O)cc2)oc2cc(O)cc(O)c12 [Kaempferol] | 162% | +++ | 305% | 162% | 
O=C(O)/C=C/c1ccc(O)c(O)c1 [Coffeic Acid, coffeic acid] |  | + |  |  | 97%
